What was measured:
PDGFRβ = biological target: T1, PDGFRβ (Homo sapiens, UniProt P09619); assay: In vitro phospho-Tyr751 PDGFRβ ELISA assay (Test (b)); type: cell-based; details: MG63 osteosarcoma cells stimulated with PDGFBB, read-out: IC50 versus phospho-Tyr751 formation in PDGFRβ
T1 construct: endogenous in cells; host or cells: MG63 osteosarcoma cells (ATCC)
Method: This assay uses a conventional ELISA method to determine the ability of test compounds to inhibit phosphorylation of tyrosine in PDGFRβ.
Aliquots (100 μl) of culture media were placed in the outer wells to minimise edge effects. The cells were incubated overnight at 37° C. with 7.5% CO2 to allow the cells to adhere to the wells.
Aliquots (3 μl) of each compound concentration were added to test medium (300 μl) to create a second dilution range. Aliquots (16 μl) of each resultant compound concentration were added to the cells in each well. “Maximum” control cells received a dilution of DMSO plus test medium only. “Minimum” control cells received a reference PDGFR inhibitor (16 μl). The cells were incubated for 90 minutes at 37° C. with 7.5% CO2.
The resultant cells were stimulated with PDGFBB using the following procedure. A lyophilised powder of PDGFBB, (Sigma-Aldrich; Catalogue No. P4306) was mixed with sterile water to provide a stock solution of 10 μg/ml of PDGFBB. […] Aliquots thereof (44 μl) were added to compound treated cells and to the “Maximum” control cells. The “Minimum” control cells received medium only. The cells were incubated at 37° C. with 7.5% CO2 for 5 minutes. […] The resultant tissue culture plates were shaken for 5 minutes at ambient temperature to ensure full lysis and then frozen at −20° C. until required.
Aliquots (50 μl) were added to each well and the plates were placed at 4° C. for 16 hours. The wells were washed 5 times (1 minute soak each time) with 300 μl per well of PBST. The wells were treated with 50 μl of 3% BSA in PBST at ambient temperature for 1 hour and subsequently washed twice with 300 μl per well of PBST.
The tissue culture plates with frozen cell lysate were allowed to warm to 0° C.

KDR (VEGFR2) = biological target: T2, KDR (VEGFR2) (Homo sapiens, UniProt P35968); assay: In vitro phospho-KDR ELISA assay (Test (c)); type: cell-based; details: HUVECs stimulated with VEGF, read-out: IC50 versus phospho-tyrosine formation in KDR
T2 construct: phosphorylation of KDR expressed in human umbilical vein endothelial cells (HUVECs); host or cells: HUVEC
Method: (c) In Vitro Phospho-KDR ELISA Assay
This assay uses a conventional ELISA method to determine the ability of test compounds to inhibit phosphorylation of tyrosine in KDR (VEGFR2).
The cells were incubated overnight at 37° C. with 7.5% CO2 to allow adherence to the well surface. […] The plates were incubated at 37° C. for 2.5 hours.
Test compounds were prepared as 10 mM stock solutions in DMSO and serially diluted with DMSO as required. […] Aliquots (50 μl) of each resultant compound concentration were added to the cells in each well. […] The cells were incubated for 90 minutes at 37° C. with 7.5% CO2.
The resultant cells were stimulated with VEGF using the following procedure. […] A dilution of this stock solution into ‘serum free medium’ provided a 1000 ng/ml VEGF solution. Aliquots thereof (50 μl) were added to all wells. The cells were incubated at 37° C. with 7.5% CO2 for 5 minutes. […] The resultant tissue culture plates were shaken for 5 minutes at ambient temperature to ensure full lysis before being frozen on dry-ice and stored at −20° C. until required.
The antibody was diluted in PBS to a concentration of 8 μg/ml, aliquots (100 μl) were added to each well and the plates were stored at ambient temperature for 16 hours. The wells were washed 3 times (1 minute soak each time) with 300 μl per well of PBST. The wells were treated with PBS containing 1% filter-sterilised BSA (1% BSA/PBS; 200 μl) at ambient temperature for 1 hour and subsequently washed 3 times with 300 μl per well of PBST.
The tissue culture plates with frozen cell lysate were allowed to warm to 0° C. Aliquots (100 μl) of the HUVEC cell lysate were added and the ELISA plates were agitated at ambient temperature for 3 hours. The wells were washed 3 times with 300 μl per well of PBST.

T2 sequence (P35968 20-1356): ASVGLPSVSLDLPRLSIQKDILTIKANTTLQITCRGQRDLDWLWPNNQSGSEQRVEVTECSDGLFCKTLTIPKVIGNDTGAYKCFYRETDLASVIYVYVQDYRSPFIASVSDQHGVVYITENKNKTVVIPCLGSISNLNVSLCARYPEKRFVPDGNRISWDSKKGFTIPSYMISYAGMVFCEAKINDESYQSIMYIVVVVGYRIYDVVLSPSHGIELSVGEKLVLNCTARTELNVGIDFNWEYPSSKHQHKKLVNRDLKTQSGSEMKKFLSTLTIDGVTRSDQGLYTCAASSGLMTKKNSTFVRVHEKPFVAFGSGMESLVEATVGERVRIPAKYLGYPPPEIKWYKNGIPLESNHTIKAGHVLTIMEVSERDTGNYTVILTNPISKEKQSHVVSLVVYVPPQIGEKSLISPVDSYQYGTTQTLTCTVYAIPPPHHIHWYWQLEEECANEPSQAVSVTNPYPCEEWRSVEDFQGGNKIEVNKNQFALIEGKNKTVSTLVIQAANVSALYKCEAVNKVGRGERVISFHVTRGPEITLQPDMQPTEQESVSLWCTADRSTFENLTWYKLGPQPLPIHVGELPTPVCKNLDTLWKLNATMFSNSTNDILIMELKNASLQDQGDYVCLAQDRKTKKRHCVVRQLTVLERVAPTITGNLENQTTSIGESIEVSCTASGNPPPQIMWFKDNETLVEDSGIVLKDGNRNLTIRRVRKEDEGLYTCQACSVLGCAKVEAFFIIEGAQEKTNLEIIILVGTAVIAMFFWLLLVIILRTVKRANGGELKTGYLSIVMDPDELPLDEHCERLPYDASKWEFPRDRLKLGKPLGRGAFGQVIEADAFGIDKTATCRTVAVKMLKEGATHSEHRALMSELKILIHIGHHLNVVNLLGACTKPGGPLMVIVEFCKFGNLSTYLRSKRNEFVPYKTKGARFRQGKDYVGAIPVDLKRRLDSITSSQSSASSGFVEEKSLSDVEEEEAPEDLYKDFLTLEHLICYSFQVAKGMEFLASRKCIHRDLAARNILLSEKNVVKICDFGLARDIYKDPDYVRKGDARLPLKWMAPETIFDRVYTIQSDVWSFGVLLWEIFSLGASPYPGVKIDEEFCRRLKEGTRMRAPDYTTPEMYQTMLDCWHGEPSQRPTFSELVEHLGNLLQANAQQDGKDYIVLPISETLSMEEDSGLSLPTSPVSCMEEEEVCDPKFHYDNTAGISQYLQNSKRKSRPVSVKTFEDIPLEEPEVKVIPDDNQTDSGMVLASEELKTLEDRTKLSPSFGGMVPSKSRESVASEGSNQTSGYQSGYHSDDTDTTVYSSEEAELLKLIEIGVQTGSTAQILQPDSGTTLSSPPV
T1 sequence (P09619 33-1106): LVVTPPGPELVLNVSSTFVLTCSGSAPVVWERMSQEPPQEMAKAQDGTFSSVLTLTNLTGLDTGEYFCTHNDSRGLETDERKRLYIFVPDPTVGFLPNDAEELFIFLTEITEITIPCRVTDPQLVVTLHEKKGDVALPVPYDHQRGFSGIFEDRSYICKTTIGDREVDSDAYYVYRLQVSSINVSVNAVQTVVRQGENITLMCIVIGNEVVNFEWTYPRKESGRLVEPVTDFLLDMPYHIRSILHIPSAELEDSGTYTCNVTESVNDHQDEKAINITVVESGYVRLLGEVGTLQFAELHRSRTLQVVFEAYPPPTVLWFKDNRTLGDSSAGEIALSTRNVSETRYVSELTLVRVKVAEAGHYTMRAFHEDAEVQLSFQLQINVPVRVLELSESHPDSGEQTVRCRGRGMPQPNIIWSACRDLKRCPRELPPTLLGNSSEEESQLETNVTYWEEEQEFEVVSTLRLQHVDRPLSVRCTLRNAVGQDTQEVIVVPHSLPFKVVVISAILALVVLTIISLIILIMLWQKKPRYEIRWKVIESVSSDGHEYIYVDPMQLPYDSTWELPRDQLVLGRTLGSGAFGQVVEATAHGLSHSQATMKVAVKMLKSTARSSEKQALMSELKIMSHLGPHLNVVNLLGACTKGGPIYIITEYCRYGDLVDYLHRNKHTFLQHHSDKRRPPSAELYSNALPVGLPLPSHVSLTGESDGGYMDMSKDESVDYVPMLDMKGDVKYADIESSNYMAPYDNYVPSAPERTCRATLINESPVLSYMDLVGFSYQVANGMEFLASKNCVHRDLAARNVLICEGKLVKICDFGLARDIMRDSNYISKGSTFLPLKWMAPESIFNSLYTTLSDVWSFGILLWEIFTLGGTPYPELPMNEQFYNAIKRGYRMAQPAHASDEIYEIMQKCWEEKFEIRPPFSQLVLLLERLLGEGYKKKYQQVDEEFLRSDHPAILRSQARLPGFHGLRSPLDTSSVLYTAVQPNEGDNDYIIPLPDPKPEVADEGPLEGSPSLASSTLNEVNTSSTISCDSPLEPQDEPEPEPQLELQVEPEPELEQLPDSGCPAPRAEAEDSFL

IC50 (PDGFRβ) [nM] | IC50 (KDR (VEGFR2)) [nM] | SMILES
~30 |  | CCc1cc(NC(=O)Cc2ccc(Oc3ccnc4cc(OC)c(C#N)cc34)cn2)n[nH]1 [Example 3, N-(5-ethylpyrazol-3-yl)-2-[5-(6-cyano-7-methoxyquinolin-4-yloxy)pyridin-2-yl]acetamide]
~5 | > 2000 | COc1ccc2c(Oc3cnc(CC(=O)Nc4noc(C)c4C)c(OC)c3)ccnc2c1 [N-(4,5-dimethylisoxazol-3-yl)-2-[3-methoxy-5-(7-methoxyquinolin-4-yloxy)pyridin-2-yl]acetamide]
~5 | > 2000 | COc1cc2nccc(Oc3cnc(CC(=O)Nc4n[nH]c(C)c4C)c(OC)c3)c2cc1OC [N-(4,5-dimethylpyrazol-3-yl)-2-[5-(6,7-dimethoxyquinolin-4-yloxy)-3-methoxypyridin-2-yl]acetamide]
~5 | > 2000 | CCc1cc(NC(=O)Cc2ncc(Oc3ccnc4ccc(F)cc34)cc2OC)no1 [N-(5-ethylisoxazol-3-yl)-2-[5-(6-fluoroquinolin-4-yloxy)-3-methoxypyridin-2-yl]acetamide]
